{
  "source": "patent US20030186898A1",
  "about": "“8- (C-beta-D-glucopyranosyl) -7, 3', 4' -trihydroxyflavone, process of isolation thereof, pharmaceutical composition and method for the treatment of diabetes” (priority 2002, published 2003)",
  "tested_on": "18 h. fasted Wistar rats",
  "assay": "hypoglycaemic activity in 18 h. fasted Wistar rats",
  "assay_type": "in vivo",
  "protocol": "The compound 8-(C-β-D-glucopyranosyl)-7,3′,4′-trihydroxyflavone has been evaluated for hypoglycaemic activity in 18 h. fasted Wistar rats. […] The mean fall recorded was 24 mg/100 ml. blood, from initial mean of 92 to mean of 68 mg/100 ml. blood.",
  "data": [
    {"smiles": "O=c1cc(-c2ccc(O)c(O)c2)oc2c([C@@H]3O[C@H](CO)[C@@H](O)[C@H](O)[C@H]3O)c(O)ccc12", "note": "[8-(C-β-D-glucopyranosyl)-7,3′,4′-trihydroxyflavone]", "values": [
      {"measurement": "hypoglycaemic effect", "setting": "10 mg/kg p. o.", "result": "hypoglycaemic effect was recorded in all the treated rats"},
      {"measurement": "mean (blood sugar) after treatment", "setting": "after 10 mg/kg p. o.", "result": 68, "unit": "mg/100 ml. blood"},
      {"measurement": "initial mean (blood sugar)", "setting": "before treatment with 10 mg/kg p. o.", "result": 92, "unit": "mg/100 ml. blood"},
      {"measurement": "mean fall (blood sugar)", "setting": "compound at 10 mg/kg p. o.", "result": 24, "unit": "mg/100 ml. blood"}
    ]}
  ]
}
